Laboratory results published in patent publication US10669284B2, “Fused thiazolopyrimidine derivatives as MNKS inhibitors” (LIFEARC, priority 2015, dated 2020).

Tests used:
Full-length human MNK1 = molecular target: T1, Full-length human MNK1 (Homo sapiens, UniProt Q9BUB5, T385D); assay: MNK1 biochemical IC50 assay (Caliper Mobility Shift Assay); settings: read-out: P(IC50) MNK1 (converted)
T1 construct: GST (N); purchased Carna Biosciences 02-145; host or cells: baculovirus expression system
Excerpt: (§1) The phosphorylated peptide product and unphosphorylated peptide substrate were detected using a Caliper Mobility Shift Assay using the Caliper LabChip EZ Reader II.
(§2) The Caliper Mobility Shift Assay technology is based on the utilisation of a microfluidic chip to measure the conversion of a fluorescent non-phosphorylated peptide substrate to phosphorylated product by electrophoresis separation of substrate and product and detection via Laser-induced fluorescence. The LabChip EZ Reader software calculates the relative heights of substrate and product peaks and reports the peak ratio (Product peak(P) divided by the sum of Product peak(P) and Substrate peak(S)). The percent-conversion is calculated as 100×[(P/(P+S)]. All assays were set up to run in the linear phase with a maximum of 10 percent substrate conversion.
(§3) These were N-terminal GST fusion proteins expressed in baculovirus expression system and purified by glutathione sepharose affinity chromatography. […] All other assay reagents were sourced from Sigma.
Compounds were serially diluted in DMSO to generate a 10-point half log dilution curve with a final top concentration of 100 uM in the assay. […] Compounds were pre-incubated with enzyme and peptide in reaction buffer for 30 mins prior to addition of ATP to initiate the reaction. Final assay concentrations were 3 nM MNK1, 2 uM peptide substrate, 50 uM ATP, 50 mM Hepes pH 7.0, 0.01% BSA, 10 mM MgCl2, 1 mM dithiothrietol.
(§4) The assay incubation times were adjusted depending on the concentration of ATP used. Assays were performed at low (50 uM) and high (1 mM) ATP. The low ATP values were selected to run at Km conditions for the standard assay to allow relative potencies to be compared across other kinases. The high ATP concentration was selected as representative of cellular ATP concentrations, and for an indication of ATP competition, where a significant shift (greater than half log) in apparent potency would be expected compared to Km conditions. All IC50 values reported are the average of at least two independent experiments.

[1] = tested on: phosphorylation of eIF4E at ser209 in MV4.11 cell line; assay: MNK cellular activity phospho-eIF4E detection assay (Alphascreen Surefire); assay type: cell-based; settings: Homo sapiens; MV4.11 cell line, phospho-eIF4E (ser209) Alphascreen Surefire; read-out: P(IC50) elF4E (converted)
Protocol: The assay detection is based on the formation of sandwich antibody complexes coupled to donor and acceptor beads. Excitation at 680 nm causes the transfer of a singlet oxygen species between donor and acceptor beads when they are in close proximity by binding to the analyte ([…]), which results in the emission of light at 520-620 nm.
Cells were then lysed and the Alphascreen Surefire protocol followed according to manufacturer's recommendations. 8 ul Acceptor beads (1:50 dilution in kit activation buffer) was added to lysate, shaken 150 rpm for 2 min and incubated for 1.5 hr at room temperature. 3 ul Donor beads (1:20 dilution in kit dilution buffer) were then added, shaken 150 rpm for 2 min and incubated for a further 1.5 hr at room temperature after which the plates were read on Pherastar FS using Alphascreen optic module.
Data were normalised relative to untreated DMSO only controls and curves repeated in duplicate within experiments. Data reported are averages of at least 2 independent experiments.

Full-length human MNK2 = molecular target: T2, Full-length human MNK2 (Homo sapiens, UniProt Q9HBH9, T379D); assay: MNK2 biochemical IC50 assay (Caliper Mobility Shift Assay); settings: read-out: P(IC50) MNK2 (converted)
T2 construct: GST (N); purchased Carna Biosciences 02-146; host or cells: baculovirus expression system
T2 sequence (Q9HBH9 whole entry T379D): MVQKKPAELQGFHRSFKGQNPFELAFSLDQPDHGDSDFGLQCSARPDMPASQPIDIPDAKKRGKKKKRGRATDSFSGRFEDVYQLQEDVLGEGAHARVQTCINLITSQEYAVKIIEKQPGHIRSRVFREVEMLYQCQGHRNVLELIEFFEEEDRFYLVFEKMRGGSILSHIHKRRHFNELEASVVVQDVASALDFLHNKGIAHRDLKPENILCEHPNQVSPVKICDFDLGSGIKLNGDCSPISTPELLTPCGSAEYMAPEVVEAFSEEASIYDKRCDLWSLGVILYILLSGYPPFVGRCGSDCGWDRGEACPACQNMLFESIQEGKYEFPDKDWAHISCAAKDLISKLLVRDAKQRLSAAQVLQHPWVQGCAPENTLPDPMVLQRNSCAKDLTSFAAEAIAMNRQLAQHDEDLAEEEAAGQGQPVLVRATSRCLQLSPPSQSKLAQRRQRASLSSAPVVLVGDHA
Excerpt: as §1, §2, §3, §4
Reactions were performed as above using 10 nM MNK2 in the assay. Standard assays contained 50 uM ATP and high concentration ATP assays contained 1 mM ATP. […] All other conditions were the same.

T1 sequence (Q9BUB5 1-424 isoform Q9BUB5-2 T344D): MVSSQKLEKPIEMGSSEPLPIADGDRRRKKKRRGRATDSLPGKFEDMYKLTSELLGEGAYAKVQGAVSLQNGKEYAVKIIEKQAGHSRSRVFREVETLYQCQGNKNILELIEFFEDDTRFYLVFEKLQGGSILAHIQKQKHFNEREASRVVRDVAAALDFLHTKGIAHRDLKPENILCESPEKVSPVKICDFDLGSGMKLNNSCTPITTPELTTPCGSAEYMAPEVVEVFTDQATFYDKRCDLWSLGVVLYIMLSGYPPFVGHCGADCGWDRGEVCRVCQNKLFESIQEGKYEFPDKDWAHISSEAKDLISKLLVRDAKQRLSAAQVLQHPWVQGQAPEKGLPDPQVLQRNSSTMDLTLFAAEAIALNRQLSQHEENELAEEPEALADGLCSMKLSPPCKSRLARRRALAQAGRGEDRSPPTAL

## O=C(NC1CCOCC1)c1nc2c(N3CC(CCN4CCOCC4)c4cc(F)ccc43)ncnc2s1 (stereo not drawn) [Example 151, 7-[5-fluoro-3-(2-morpholinoethyl)indolin-1-yl]-N-tetrahydropyran-4-yl-thiazolo[5,4-d]pyrimidine-2-carboxamide]
Full-length human MNK1
  IC50: 100 nM
[1]
  IC50: 31.6 nM
Full-length human MNK2
  IC50: 100 nM

## CC(C)Oc1cc(F)ccc1Nc1ncnc2sc(C(=O)N3CC4(CNC4)C3)nc12 [Example 7, 2,6-diazaspiro[3.3]heptan-2-yl-[7-(4-fluoro-2-isopropoxy-anilino)thiazolo[5,4-d]pyrimidin-2-yl]methanone]
Full-length human MNK1
  IC50: 251 nM
[1]
  IC50: 316 nM
Full-length human MNK2
  IC50: 251 nM

## CNCCC1(C)CN(c2ncnc3sc(C(=O)NC4CCOCC4)nc23)c2ccccc21 (stereo not drawn) [Example 118, 7-[3-Methyl-3-[2-(methylamino)ethyl]indolin-1-yl]-N-tetrahydropyran-4-yl-thiazolo[5,4-d]pyrimidine-2-carboxamide]
Full-length human MNK1
  IC50: 126 nM
[1]
  IC50: 251 nM
Full-length human MNK2
  IC50: 158 nM

## O=C(NCC1CCNCC1)c1nc2c(N3c4ccccc4C[C@@H]3CO)ncnc2s1 [Example 138]
Full-length human MNK1
  IC50: 398 nM
[1]
  IC50: 200 nM
Full-length human MNK2
  IC50: 316 nM

## CC(C)Oc1cc(F)ccc1Nc1ncnc2sc(C(=O)NCCCN(C)C)nc12 [Example 3, N-[3-(Dimethylamino)propyl]-7-(4-fluoro-2-isopropoxy-anilino)thiazolo[5,4-d]pyrimidine-2-carboxamide]
Full-length human MNK1
  IC50: 63.1 nM
[1]
  IC50: 50.1 nM
Full-length human MNK2
  IC50: 50.1 nM

## O=C(NC1CCOCC1)c1nc2c(-n3ccc4ccccc43)ncnc2s1 [Example 117, 7-Indol-1-yl-N-tetrahydropyran-4-yl-thiazolo[5,4-d]pyrimidine-2-carboxamide]
Full-length human MNK1
  IC50: 50.1 nM
[1]
  IC50: 50.1 nM
Full-length human MNK2
  IC50: 31.6 nM

## CNCCCNC(=O)c1nc2c(N3c4ccccc4C[C@H]3C)ncnc2s1 [Example 128, N-[3-(methylamino)propyl]-7-[(2R)-2-methylindolin-1-yl]thiazolo[5,4-d]pyrimidine-2-carboxamide]
Full-length human MNK1
  IC50: 20 nM
[1]
  IC50: 79.4 nM
Full-length human MNK2
  IC50: 12.6 nM

## CC(C)Oc1cc(F)ccc1Nc1ncnc2sc(C(=O)NCCC3CCN(C)CC3)nc12 [Example 37, 7-{[4-fluoro-2-(propan-2-yloxy)phenyl]amino}-N-[2-(1-methylpiperidin-4-yl)ethyl][1,3]thiazolo[5,4-d]pyrimidine-2-carboxamide]
Full-length human MNK1
  IC50: 39.8 nM
[1]
  IC50: 25.1 nM
Full-length human MNK2
  IC50: 39.8 nM

## NCCC1CN(c2ncnc3sc(C(=O)NCCC(F)(F)F)nc23)c2ccccc21 (stereo not drawn) [Example 167, 7-[3-(2-aminoethyl)indolin-1-yl]-N-(3,3,3-trifluoropropyl)thiazolo [5,4-d]pyrimidine-2-carboxamide]
Full-length human MNK1
  IC50: 7.94 nM
[1]
  IC50: 15.8 nM
Full-length human MNK2
  IC50: 5.01 nM

## O=C(NC1CCOCC1)c1nc2c(N3CCc4cc(O)ccc43)ncnc2s1 [Example 114, 7-(5-hydroxyindolin-1-yl)-N-tetrahydropyran-4-yl-thiazolo[5,4-d]pyrimidine-2-carboxamide]
Full-length human MNK1
  IC50: 2.51 nM
[1]
  IC50: 1.58 nM
Full-length human MNK2
  IC50: 2.51 nM

## O=C(NCC1CCNCC1)c1nc2c(N3CC(CCO)c4cc(F)ccc43)ncnc2s1 (stereo not drawn) [Example 139]
Full-length human MNK1
  IC50: 2.51 nM
[1]
  IC50: 31.6 nM
Full-length human MNK2
  IC50: 3.16 nM

## CN1CCN(c2ncnc3sc(C(=O)NCC4CCNCC4)nc23)c2ccc(F)cc21 [Example 57, 7-(6-fluoro-4-methyl-2,3-dihydroquinoxalin-1-yl)-N-(4-piperidylmethyl)thiazolo[5,4-d]pyrimidine-2-carboxamide]
Full-length human MNK1
  IC50: 251 nM
[1]
  IC50: 251 nM
Full-length human MNK2
  IC50: 251 nM

## CN(C)CCCNC(=O)c1nc2c(Nc3ccc(F)cc3OC3CCCC3)ncnc2s1 [Example 22, 7-[2-(Cyclopentoxy)-4-fluoro-anilino]-N-[3-(dimethylamino)propyl]thiazolo[5,4-d]pyrimidine-2-carboxamide]
Full-length human MNK1
  IC50: 100 nM
[1]
  IC50: 63.1 nM
Full-length human MNK2
  IC50: 63.1 nM

## CC(C)Oc1cc(F)ccc1Nc1ncnc2sc(C(=O)NC3CCS(=O)(=O)CC3)nc12 [Example 34, N-(1,1-dioxidotetrahydro-2H-thiopyran-4-yl)-7-{[4-fluoro-2-(propan-2-yloxy)phenyl]amino}[1,3]thiazolo[5,4-d]pyrimidine-2-carboxamide]
Full-length human MNK1
  IC50: 200 nM
[1]
  IC50: 79.4 nM
Full-length human MNK2
  IC50: 158 nM

## OCc1nc2c(N3CCc4cc(F)ccc43)ncnc2s1 [Example 81, [7-(5-Fluoroindolin-1-yl)thiazolo[5,4-d]pyrimidin-2-yl]methanol]
Full-length human MNK1
  IC50: 39.8 nM
[1]
  IC50: 100 nM
Full-length human MNK2
  IC50: 20 nM

## CC1(CO)CN(c2ncnc3sc(C(=O)NCC4CCNCC4)nc23)c2ccccc21 (stereo not drawn) [Example 140]
Full-length human MNK1
  IC50: 6.31 nM
[1]
  IC50: 39.8 nM
Full-length human MNK2
  IC50: 6.31 nM

## CO[C@H]1CCC[C@@H](Oc2cc(F)ccc2Nc2ncnc3sc(C(=O)NCC4CCNCC4)nc23)C1 [Example 60, 7-[4-fluoro-2-[(1R,3S)-3-methoxycyclohexoxy]anilino]-N-(4-piperidylmethyl)thiazolo[5,4-d]pyrimidine-2-carboxamide]
Full-length human MNK1
  IC50: 794 nM
[1]
  IC50: 631 nM
Full-length human MNK2
  IC50: 1000 nM

## O=C(NC1CCOCC1)c1nc2c(N3CCc4cnccc43)ncnc2s1 [Example 43, 7-(2,3-Dihydro-1H-pyrrolo[3,2-c]pyridin-1-yl)-N-(tetrahydro-2H-pyran-4-yl)[1,3]thiazolo[5,4-d]pyrimidine-2-carboxamide]
Full-length human MNK1
  IC50: 39.8 nM
[1]
  IC50: 25.1 nM
Full-length human MNK2
  IC50: 31.6 nM

## CC1CN(c2ncnc3sc(C(=O)NC4CCOCC4)nc23)c2ccccc21 (stereo not drawn) [Example 125, 7-(3-Methylindolin-1-yl)-N-tetrahydropyran-4-yl-thiazolo[5,4-d]pyrimidine-2-carboxamide]
Full-length human MNK1
  IC50: 3.16 nM
[1]
  IC50: 3.98 nM
Full-length human MNK2
  IC50: 3.98 nM

## O=C(NCC1CCOCC1)c1nc2c(N3CCc4ccccc43)ncnc2s1 [Example 103, 7-indolin-1-yl-N-(tetrahydropyran-4-ylmethyl)thiazoto[5,4-d]pyrimidine-2-carboxamide]
Full-length human MNK1
  IC50: 10 nM
[1]
  IC50: 63.1 nM
Full-length human MNK2
  IC50: 10 nM

## CC1(CCO)CN(c2ncnc3sc(C(=O)NC4CCOCC4)nc23)c2ccccc21 (stereo not drawn) [Example 113, 7-[3-(2-hydroxyethyl)-3-methyl-indolin-1-yl]-N-tetrahydropyran-4-yl-thiazolo[5,4-d]pyrimidine-2-carboxamide]
Full-length human MNK1
  IC50: 39.8 nM
[1]
  IC50: 39.8 nM
Full-length human MNK2
  IC50: 39.8 nM

## CC(C)(O)c1nc2c(N3CCc4cc(F)ccc43)ncnc2s1 [Example 82, 2-[7-(5-Fluoroindolin-1-yl)thiazolo[5,4-d]pyrimidin-2-yl]propan-2-ol]
Full-length human MNK1
  IC50: 31.6 nM
[1]
  IC50: 158 nM
Full-length human MNK2
  IC50: 31.6 nM

## CN(C)CCC1CN(c2ncnc3sc(C(=O)NC4CCOCC4)nc23)c2ccc(F)cc21 (stereo not drawn) [Example 148, 7-[3-[2-(dimethyl-amino)ethyl]-5-fluoro-indolin-1-yl]-N-tetrahydro-pyran-4-yl-thiazolo[5,4-d]pyrimidine-2-carboxamide]
Full-length human MNK1
  IC50: 50.1 nM
[1]
  IC50: 63.1 nM
Full-length human MNK2
  IC50: 63.1 nM

## CN(C)CCNC(=O)c1nc2c(N3CCc4cc(F)ccc43)ncnc2s1 [Example 73, N-[2-(dimethylamino)ethyl]-7-(5-fluoroindolin-1-yl)thiazolo[5,4-d]pyrimidine-2-carboxamide]
Full-length human MNK1
  IC50: 5.01 nM
[1]
  IC50: 15.8 nM
Full-length human MNK2
  IC50: 5.01 nM

## CN(C)CCCNC(=O)c1nc2c(Nc3cccc4c3OCC4)ncnc2s1 [Example 26, 7-(2,3-Dihydrobenzofuran-7-ylamino)-N-[3-(dimethylamino)propyl]thiazolo[5,4-d]pyrimidine-2-carboxamide]
Full-length human MNK1
  IC50: 1580 nM
[1]
  IC50: 1000 nM
Full-length human MNK2
  IC50: 1580 nM

## Cc1ccc2c(c1)CCN2c1ncnc2sc(C(=O)NCC3CCNCC3)nc12 [Example 170, 7-(5-Methylindolin-1-yl)-N-(4-piperidylmethyl)thiazolo[5,4-d]pyrimidine-2-carboxamide]
Full-length human MNK1
  IC50: 63.1 nM
[1]
  IC50: 79.4 nM
Full-length human MNK2
  IC50: 25.1 nM
